Experimental findings from ChEMBL document CHEMBL1212924 (J Med Chem, 2010) are described below.

Broadly, the half-life is how long it takes for the measured level to halve. As usually defined, the inhibition is the relative decrease from the control value, in per cent. What is called IC50 is the concentration needed to halve the response being measured. Read a high IC50 as weaker potency in that assay. The Cmax is the highest concentration seen after dosing. Usually bioavailability stands for dose-corrected exposure relative to a reference, in per cent. A higher bioavailability goes with much systemic uptake.

Data set [1] can be described thus: in vitro. Conditions: human, liver microsomes. A general note: Microsomes from liver hold many membrane-bound enzymes, among them those of drug oxidation.
Description: Half life in human liver microsome at 2 mg/mL
The target of data set [2] is T1, CYP1A2 (Homo sapiens, UniProt P05177).
T1 sequence (P05177 whole entry): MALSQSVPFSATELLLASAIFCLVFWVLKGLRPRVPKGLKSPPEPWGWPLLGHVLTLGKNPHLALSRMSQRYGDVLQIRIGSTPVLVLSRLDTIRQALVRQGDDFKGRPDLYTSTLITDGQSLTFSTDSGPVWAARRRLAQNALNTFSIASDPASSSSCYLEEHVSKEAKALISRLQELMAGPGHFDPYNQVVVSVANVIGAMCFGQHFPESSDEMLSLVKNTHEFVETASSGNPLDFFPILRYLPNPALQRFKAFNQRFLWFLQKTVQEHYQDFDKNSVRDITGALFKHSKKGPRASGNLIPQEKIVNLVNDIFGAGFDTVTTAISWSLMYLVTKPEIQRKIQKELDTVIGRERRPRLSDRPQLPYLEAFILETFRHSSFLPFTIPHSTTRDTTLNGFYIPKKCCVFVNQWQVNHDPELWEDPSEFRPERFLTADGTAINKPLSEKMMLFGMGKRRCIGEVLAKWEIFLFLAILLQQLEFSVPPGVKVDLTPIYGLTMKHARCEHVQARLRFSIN
Put plainly: Inhibition of CYP1A2 at 10 uM. It is filed as ADME.

The target in data set [3] is Serine/threonine-protein kinase MRCK alpha (Homo sapiens, UniProt Q5VT25). In words: Inhibition of MRCKalpha.
Data set [4] addresses CYP2D6 (Homo sapiens, UniProt P10635). Put plainly: Inhibition of CYP2D6 at 10 uM. It is filed as ADME.
Data set [5] deals with CYP2C9 (Homo sapiens, UniProt P11712). Put plainly: Inhibition of CYP2C9 at 10 uM. It is filed as ADME.
Data set [6] addresses CYP3A4 (Homo sapiens, UniProt P08684). In words: Inhibition of CYP3A4 at 10 uM. It is filed as ADME.
In data set [7] the target is Rho-associated protein kinase 1 (Homo sapiens, UniProt Q13464).
For data set [8], the target named is Mitogen-activated protein kinase 10 (Homo sapiens, UniProt P53779).
A short description of data set [9]: Inhibition of p38.
In data set [10] the target is Rho-associated protein kinase 2 (Homo sapiens, UniProt O75116).
A short description of data set [11]: Volume of distribution in rat at 1 mg/kg, iv and 2 mg/kg, po. The class given is ADME, organism-based. Conditions: in vivo.
Data set [12] can be described thus: Clearance in rat at 1 mg/kg, iv and 2 mg/kg, po. The note with it: in vivo. The class given is ADME, organism-based.
Data set [13] is described as follows: Half life in rat at 1 mg/kg, iv and 2 mg/kg, po. It is filed as ADME, organism-based. The note with it: in vivo.
The nature of data set [14]: Cmax in rat at 2 mg/kg, po. The arrangement: dose 2 mg/kg, route oral. It is filed as ADME, organism-based. Conditions: in vivo.
Data set [15] is described as follows: Oral bioavailability in rat at 2 mg/kg. It is filed as ADME, organism-based. The note with it: in vivo.

Sequence of CYP3A4 (P08684 whole entry): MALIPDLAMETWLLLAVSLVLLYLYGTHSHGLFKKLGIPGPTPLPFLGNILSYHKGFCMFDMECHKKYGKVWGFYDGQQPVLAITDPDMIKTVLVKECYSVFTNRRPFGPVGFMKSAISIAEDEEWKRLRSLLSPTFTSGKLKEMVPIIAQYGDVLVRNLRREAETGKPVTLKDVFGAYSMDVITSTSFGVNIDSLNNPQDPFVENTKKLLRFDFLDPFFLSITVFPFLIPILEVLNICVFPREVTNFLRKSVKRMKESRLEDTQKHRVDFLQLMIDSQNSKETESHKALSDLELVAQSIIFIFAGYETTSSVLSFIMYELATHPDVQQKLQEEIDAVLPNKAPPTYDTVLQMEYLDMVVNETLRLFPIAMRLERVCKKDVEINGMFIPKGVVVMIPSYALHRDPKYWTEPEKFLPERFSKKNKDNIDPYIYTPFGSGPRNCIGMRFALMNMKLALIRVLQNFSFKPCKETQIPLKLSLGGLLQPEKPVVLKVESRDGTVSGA
Sequence of CYP2C9 (P11712 whole entry): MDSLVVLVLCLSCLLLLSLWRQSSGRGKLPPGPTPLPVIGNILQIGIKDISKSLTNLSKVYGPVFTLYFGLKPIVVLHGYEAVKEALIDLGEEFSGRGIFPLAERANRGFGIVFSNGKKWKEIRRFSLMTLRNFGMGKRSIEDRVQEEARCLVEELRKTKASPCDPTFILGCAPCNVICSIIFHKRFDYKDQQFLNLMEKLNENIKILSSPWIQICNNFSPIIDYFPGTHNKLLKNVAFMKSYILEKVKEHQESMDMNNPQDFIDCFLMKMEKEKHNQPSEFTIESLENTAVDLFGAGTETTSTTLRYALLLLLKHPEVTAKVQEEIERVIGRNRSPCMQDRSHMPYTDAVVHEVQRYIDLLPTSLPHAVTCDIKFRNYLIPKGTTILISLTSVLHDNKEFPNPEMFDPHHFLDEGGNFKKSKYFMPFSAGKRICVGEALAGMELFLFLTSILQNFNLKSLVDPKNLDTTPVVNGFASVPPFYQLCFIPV
Sequence of Rho-associated protein kinase 1 (Q13464 whole entry): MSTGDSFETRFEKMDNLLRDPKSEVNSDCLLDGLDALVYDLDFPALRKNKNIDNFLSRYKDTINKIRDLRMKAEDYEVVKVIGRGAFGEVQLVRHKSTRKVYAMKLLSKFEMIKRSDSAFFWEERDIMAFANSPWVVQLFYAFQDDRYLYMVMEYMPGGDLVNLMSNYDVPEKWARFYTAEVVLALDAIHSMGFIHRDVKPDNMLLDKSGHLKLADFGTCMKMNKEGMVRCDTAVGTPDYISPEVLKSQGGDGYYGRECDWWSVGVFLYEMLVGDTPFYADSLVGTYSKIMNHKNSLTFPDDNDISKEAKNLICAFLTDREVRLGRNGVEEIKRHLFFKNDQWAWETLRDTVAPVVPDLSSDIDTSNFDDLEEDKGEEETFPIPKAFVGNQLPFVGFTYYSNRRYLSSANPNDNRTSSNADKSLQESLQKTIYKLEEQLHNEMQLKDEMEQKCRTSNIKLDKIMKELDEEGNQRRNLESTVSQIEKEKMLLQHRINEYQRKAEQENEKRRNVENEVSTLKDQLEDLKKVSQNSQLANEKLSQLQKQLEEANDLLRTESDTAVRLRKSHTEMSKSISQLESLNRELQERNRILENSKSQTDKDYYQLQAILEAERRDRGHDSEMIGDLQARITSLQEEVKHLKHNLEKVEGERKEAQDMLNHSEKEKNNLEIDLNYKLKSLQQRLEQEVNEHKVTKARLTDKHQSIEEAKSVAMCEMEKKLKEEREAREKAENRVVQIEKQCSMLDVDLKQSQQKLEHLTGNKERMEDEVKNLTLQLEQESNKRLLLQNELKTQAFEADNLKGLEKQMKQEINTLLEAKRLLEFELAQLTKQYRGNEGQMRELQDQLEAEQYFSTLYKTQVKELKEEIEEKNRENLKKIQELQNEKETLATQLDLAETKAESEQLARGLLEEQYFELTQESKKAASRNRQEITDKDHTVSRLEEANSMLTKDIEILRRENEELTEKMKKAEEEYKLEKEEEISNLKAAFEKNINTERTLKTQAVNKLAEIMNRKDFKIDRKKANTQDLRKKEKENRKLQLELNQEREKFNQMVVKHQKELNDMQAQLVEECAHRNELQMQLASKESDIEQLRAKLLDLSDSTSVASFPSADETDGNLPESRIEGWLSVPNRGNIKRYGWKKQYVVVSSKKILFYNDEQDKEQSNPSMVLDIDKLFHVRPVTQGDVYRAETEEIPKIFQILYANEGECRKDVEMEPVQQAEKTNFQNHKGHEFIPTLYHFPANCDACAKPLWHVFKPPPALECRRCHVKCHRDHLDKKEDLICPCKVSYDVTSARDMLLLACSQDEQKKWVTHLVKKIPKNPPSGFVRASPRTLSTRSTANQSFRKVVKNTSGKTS
Sequence of Mitogen-activated protein kinase 10 (P53779 whole entry): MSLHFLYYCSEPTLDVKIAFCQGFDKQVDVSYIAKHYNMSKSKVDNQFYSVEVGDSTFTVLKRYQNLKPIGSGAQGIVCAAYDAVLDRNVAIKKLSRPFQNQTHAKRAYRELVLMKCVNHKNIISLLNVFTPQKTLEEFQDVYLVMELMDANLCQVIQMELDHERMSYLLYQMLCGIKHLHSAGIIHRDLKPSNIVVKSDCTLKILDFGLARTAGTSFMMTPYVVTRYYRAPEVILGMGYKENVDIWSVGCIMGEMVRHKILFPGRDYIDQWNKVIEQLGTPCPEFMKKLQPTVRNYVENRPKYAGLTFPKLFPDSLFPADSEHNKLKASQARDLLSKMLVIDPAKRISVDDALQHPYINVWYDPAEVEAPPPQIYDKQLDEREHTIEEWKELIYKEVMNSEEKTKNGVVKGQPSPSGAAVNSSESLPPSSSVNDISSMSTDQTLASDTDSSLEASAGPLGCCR
Sequence of Rho-associated protein kinase 2 (O75116 whole entry): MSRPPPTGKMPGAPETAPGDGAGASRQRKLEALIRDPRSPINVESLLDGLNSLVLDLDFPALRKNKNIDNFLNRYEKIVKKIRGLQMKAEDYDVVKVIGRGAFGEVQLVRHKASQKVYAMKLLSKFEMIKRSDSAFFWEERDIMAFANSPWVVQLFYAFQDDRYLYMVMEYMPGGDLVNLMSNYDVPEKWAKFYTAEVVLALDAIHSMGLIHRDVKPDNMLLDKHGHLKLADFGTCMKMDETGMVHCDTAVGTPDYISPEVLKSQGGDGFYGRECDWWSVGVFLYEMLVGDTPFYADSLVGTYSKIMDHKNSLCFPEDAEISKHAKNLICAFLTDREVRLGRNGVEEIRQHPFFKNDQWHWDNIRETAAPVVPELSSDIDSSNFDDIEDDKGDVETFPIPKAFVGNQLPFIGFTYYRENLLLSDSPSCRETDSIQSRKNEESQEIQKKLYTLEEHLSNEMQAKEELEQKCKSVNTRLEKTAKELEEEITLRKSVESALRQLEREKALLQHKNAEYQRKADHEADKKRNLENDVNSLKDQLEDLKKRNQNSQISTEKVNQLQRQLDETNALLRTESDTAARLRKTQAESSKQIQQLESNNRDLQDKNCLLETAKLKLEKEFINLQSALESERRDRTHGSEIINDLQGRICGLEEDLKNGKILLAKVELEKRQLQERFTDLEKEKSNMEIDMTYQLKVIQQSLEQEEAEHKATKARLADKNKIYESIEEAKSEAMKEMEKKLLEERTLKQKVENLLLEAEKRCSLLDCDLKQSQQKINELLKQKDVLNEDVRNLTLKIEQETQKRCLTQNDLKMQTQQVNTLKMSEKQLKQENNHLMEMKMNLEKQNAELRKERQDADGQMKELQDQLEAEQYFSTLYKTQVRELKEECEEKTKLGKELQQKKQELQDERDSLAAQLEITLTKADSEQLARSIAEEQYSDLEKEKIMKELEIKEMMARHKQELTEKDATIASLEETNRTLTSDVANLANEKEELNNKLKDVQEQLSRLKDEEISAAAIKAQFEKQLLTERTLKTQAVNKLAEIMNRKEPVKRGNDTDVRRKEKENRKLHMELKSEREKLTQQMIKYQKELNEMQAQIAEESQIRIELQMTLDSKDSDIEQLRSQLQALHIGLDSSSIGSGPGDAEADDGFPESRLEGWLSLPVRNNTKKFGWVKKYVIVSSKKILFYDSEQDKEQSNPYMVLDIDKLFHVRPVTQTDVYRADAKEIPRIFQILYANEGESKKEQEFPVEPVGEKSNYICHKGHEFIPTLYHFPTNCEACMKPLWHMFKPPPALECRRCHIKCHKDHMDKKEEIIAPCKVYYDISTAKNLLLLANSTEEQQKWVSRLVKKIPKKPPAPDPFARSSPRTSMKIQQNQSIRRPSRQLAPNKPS
Sequence of CYP2D6 (P10635 whole entry): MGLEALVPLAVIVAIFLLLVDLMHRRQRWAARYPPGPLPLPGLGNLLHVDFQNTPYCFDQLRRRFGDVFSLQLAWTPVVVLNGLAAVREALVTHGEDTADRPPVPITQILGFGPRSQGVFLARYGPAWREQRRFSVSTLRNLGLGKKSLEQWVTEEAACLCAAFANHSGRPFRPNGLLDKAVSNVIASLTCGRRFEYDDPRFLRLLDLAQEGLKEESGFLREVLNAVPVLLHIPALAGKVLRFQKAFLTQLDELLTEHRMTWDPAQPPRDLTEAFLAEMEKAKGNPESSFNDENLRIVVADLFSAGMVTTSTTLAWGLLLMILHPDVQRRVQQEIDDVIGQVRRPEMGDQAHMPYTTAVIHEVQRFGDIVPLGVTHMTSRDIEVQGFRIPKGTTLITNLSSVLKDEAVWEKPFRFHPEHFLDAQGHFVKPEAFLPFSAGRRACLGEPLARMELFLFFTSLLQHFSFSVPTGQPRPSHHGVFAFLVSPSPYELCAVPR

Molecule `COc1ccc2c(c1)C[C@H](C(=O)Nc1c(F)cc(-c3cn[nH]c3)cc1OCCN(C)C)NC2` gave a half-life in data set [1] of 1.87 h.

The molecule `CN(C)CCOc1cc(-c2cn[nH]c2)ccc1NC(=O)[C@@H]1Cc2ccccc2CN1` yielded a half-life in data set [1] of 1.63 h.

Take `CCN1Cc2ccccc2C[C@@H]1C(=O)Nc1cc(F)c(-c2cn[nH]c2)cc1OCCN(C)C`: the inhibition at 10 µM in data set [2] was -24%; in data set [4], 52%; in data set [5] it was 70%; in data set [6], 39%. The IC50 in data set [3] was 810 nM; in data set [7], 16 nM; in data set [8], greater than 20000 nM; in data set [9], greater than 20000 nM. In addition, the half-life in data set [1] turned out to be 0.0167 h.

In the case of `COc1ccc2c(c1)CN[C@@H](C(=O)Nc1ccc(-c3cn[nH]c3)cc1OCCN(C)C)C2`, in [10], the IC50 came to 850 nM.

Consider `N[C@H](Cc1cccc(F)c1)C(=O)Nc1ccc(-c2cn[nH]c2)cc1`, for which, in data set [1], the half-life is 1.12 h.

Consider `COc1ccc2c(c1)C[C@H](C(=O)Nc1ccc(-c3cn[nH]c3)cc1)NC2`, for which the IC50 in [10] is 334 nM.

As to `COc1ccc2c(c1)C[C@H](C(=O)Nc1cc(F)c(-c3cn[nH]c3)cc1OCCN(C)C)NC2`, in data set [11], the Vd turned out to be 0.49 L/kg. This molecule displayed a clearance in data set [12] of 4.6 mL/min/kg. Further, the results for the half-life in [13] and in data set [1] were 1.5 h and 0.85 h, respectively. The same molecule came in with a Cmax in data set [14] of 32 nM. The molecule further yielded a bioavailability in data set [15] of 0.3%.

On to `COc1cccc2c1CNC(C(=O)Nc1ccc(-c3cn[nH]c3)cc1OCCN(C)C)C2` (racemic), for which the IC50 in [10] amounted to 261 nM.

On to `CCOc1ccc2c(c1)CC(C(=O)Nc1ccc(-c3cn[nH]c3)cc1OCCN(C)C)NC2` (racemic), for which the IC50 in data set [10] worked out at 156 nM.

The molecule `CN(C)CCOc1cc(-c2cn[nH]c2)c(F)cc1NC(=O)[C@H]1Cc2ccccc2CN1C` registered a half-life in data set [1] of 0.267 h.

`CN(C)CCOc1cc(-c2cn[nH]c2)ccc1NC(=O)[C@H]1Cc2cc(Cl)ccc2CN1` had a half-life in data set [1] of 2.02 h.

In data set [1], `CN(C)CCOc1cc(-c2cn[nH]c2)ccc1NC(=O)[C@H]1Cc2ccccc2CN1` came in with a half-life of 1.63 h. The half-life values of the last two molecules are within 1.5-fold of each other.

In data set [1], `COc1ccc2c(c1)C[C@H](C(=O)Nc1ccc(-c3cn[nH]c3)cc1SCCC(=O)N(C)C)NC2` displayed a half-life of 0.05 h.

Turning to `CN(C)CCOc1cc(-c2cn[nH]c2)ccc1NC(=O)C1NCCc2ccccc21` (stereo unspecified), the half-life in data set [1] turned out to be 0.233 h.

`COCCOc1cc(-c2cn[nH]c2)ccc1NC(=O)[C@H]1Cc2cc(OC)ccc2CN1` gave a half-life in data set [1] of 0.717 h.

For `COc1ccc2c(c1)C[C@H](C(=O)Nc1ccc(-c3cn[nH]c3)cc1OCCN(C)C)NC2`, in data set [11], the Vd was found to be 7.2 L/kg. For the same molecule, the inhibition at 10 µM in data set [2] was 21%; in data set [4], 40%; in data set [5] it was 31%; in [6], -3%. The IC50 in [3] was 5350 nM; in [7], 48 nM; in data set [8], greater than 20000 nM; in [9] it was greater than 20000 nM. Besides, the clearance in [12] is 17 mL/min/kg. For the same molecule, the half-life in data set [13] was 5.5 h. The molecule further gave a Cmax in data set [14] of 242 nM. For the same molecule, in data set [15], the bioavailability was found to be 28%.

Molecule `COc1ccc2c(c1)C[C@@H](C(=O)Nc1ccc(-c3cn[nH]c3)cc1OCCN(C)C)NC2` gave a half-life in data set [1] of 1.68 h.

In data set [1], `CN(C)CCOc1cc(-c2cn[nH]c2)c(F)cc1NC(=O)[C@H]1Cc2ccccc2CN1C(=O)CN(C)C` displayed a half-life of 0.233 h. Besides, in data set [10], inhibition was half-maximal at 775 nM (IC50).

On to `CCN1Cc2ccc(OC)cc2C[C@@H]1C(=O)Nc1cc(F)c(-c2cn[nH]c2)cc1OCCN(C)C`, for which the Vd in data set [11] stood at 17 L/kg. The molecule also displayed a clearance in data set [12] of 130 mL/min/kg. The half-life was 1.7 h in [13] and 0.183 h in data set [1]. Further, the bioavailability in [15] was 0%.

For the molecule `NC(Cc1ccc(Cl)cc1)C(=O)Nc1ccc(-c2cn[nH]c2)cc1` (stereo unspecified), the half-life in [1] is 1.12 h.

As for `COc1ccc2c(c1)C[C@H](C(=O)Nc1ccc(-c3cn[nH]c3)cc1OCCN1CCCC1)NC2`, the half-life in data set [1] was 1.05 h.

The molecule `CN(C)CCOc1cc(-c2cn[nH]c2)ccc1NC(=O)[C@@H]1Cc2cc(Cl)ccc2CN1` gave a half-life in data set [1] of 0.283 h.

As to `COc1ccc2c(c1)C[C@H](C(=O)Nc1ccc(-c3c[nH]nc3C)cc1SCCN(C)C)NC2`, in [1], the half-life stood at 0.183 h.

Take `COc1ccc2c(c1)C[C@H](C(=O)Nc1ccc(-c3cn[nH]c3)cc1SCCN(C)C)NC2`: the half-life in data set [1] came out at 0.367 h.

As for `COc1ccc2c(c1)C[C@H](C(=O)Nc1ccc(-c3cn[nH]c3)c(F)c1OCCN(C)C)NC2`, the half-life in [1] worked out at 1.2 h.

On to `COc1ccc2c(c1)C[C@H](C(=O)Nc1ccc(-c3cn[nH]c3)cc1OC1CCN(C)CC1)NC2`, for which the half-life in data set [1] was found to be 1.73 h.

In the case of `CN(C)CCOc1cc(-c2cn[nH]c2)c(F)cc1NC(=O)[C@H]1Cc2ccccc2CN1CC1CC1`, the Vd in data set [11] was 7 L/kg. This molecule also came in with a clearance in data set [12] of 42 mL/min/kg. Moreover, the half-life in data set [13] was 2.3 h; in data set [1], 0.05 h. For the same molecule, the bioavailability in data set [15] amounted to 0%.

In data set [1], `NC(C(=O)Nc1ccc(-c2cn[nH]c2)cc1)c1ccc(Cl)cc1` (stereo unspecified) showed a half-life of 1.4 h.

`CN(C)CCOc1cc(-c2cn[nH]c2)c(F)cc1NC(=O)[C@H]1Cc2ccccc2CN1` had a Vd in data set [11] of 24 L/kg. The inhibition at 10 µM in data set [2] was found to be 31%; in [4], 77%; in [5], 62%; in data set [6] it was 18%. The IC50 was 333 nM in data set [3], 33 nM in data set [7], greater than 20000 nM in data set [8] and greater than 20000 nM in [9]. In data set [12], this molecule came in with a clearance of 106 mL/min/kg. For the same molecule, the figures for the half-life in data set [13] and in data set [1] were 2.7 h and 0.75 h, respectively. In [14], this molecule yielded a maximum concentration (Cmax) of 18 nM. Besides, in data set [15], the bioavailability is 16%.
